Literature values as cited in patent US5607937A, “Piperazides of substituted phenylalanine derivatives as thrombin inhibitors” (priority 1993, dated 1997).

Columns and labels:
thrombin = thrombin (Homo sapiens, UniProt P00734); conditions: literature; cited from earlier work
trypsin = biological target: T1, trypsin (Bos taurus, UniProt P00760); conditions: literature; cited from earlier work
T1 sequence (P00760 24-246): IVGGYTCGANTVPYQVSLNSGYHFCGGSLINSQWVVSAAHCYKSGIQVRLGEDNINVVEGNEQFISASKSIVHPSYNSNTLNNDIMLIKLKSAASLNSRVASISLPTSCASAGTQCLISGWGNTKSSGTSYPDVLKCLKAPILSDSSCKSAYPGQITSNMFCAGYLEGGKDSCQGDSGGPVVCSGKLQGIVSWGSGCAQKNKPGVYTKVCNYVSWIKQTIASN

CC(C)(C)OC(=O)NC(Cc1ccccc1)C(=O)N1CCCC1C(=O)NC(CCCNC(=N)N)B1OC2CC3CC(C3(C)C)C2(C)O1 [Boc-D-Phe-Pro-Boro-Arg-C10 H16]
thrombin inhibition in words (thrombin): inhibited in a time-dependent reaction
trypsin-inhibiting activity in words (trypsin): inhibited in a time-dependent reaction
